Experimental data published in paper PMC9571264 (Molecules, 2022).

Tests used:
[1] = system: P53, Bax, Caspase 3, Caspase 7, PI3k, AKT, and Bcl-2 mRNA in HepG2 cells; assay: RT-PCR relative mRNA expression of apoptosis-related genes, HepG2; type: cell-based, human; conditions: HepG2, IC50 = 13.14 μM, 48 h; versus β-actin; untreated control = 1
[2] = system: Normal Liver THLE2; assay: MTT cytotoxicity assay, normal THLE2; type: cell-based; conditions: Homo sapiens, THLE-2, 48 h, read-out: IC50 (µM) ± SEM, Normal Liver THLE2
Description: Cytotoxic activities of the synthesized derivatives were screened against leukemia (HL60), liver (HepG2), breast (MCF-7), and lung (A549) cancer cell lines and non-cancerous THLE2 and WISH cells at different concentrations [0.01–100 µM] for 48 h using the MTT assay (Table 1).
Human promyelocytic leukemia ”HL-60”, human hepatocellular carcinoma “HepG2”, human breast cancer “MCF-7”, human lung cancer “A549” cell lines, and two normal cell lines, THLE-2 as normal adult liver epithelial cells and WISH as normal epithelial cells, were obtained from American Type Culture Collection “Rockville, MD, USA”.
According to the manufacturer’s protocol, the cells were seeded in 96-well plates at a concentration of 5 × 10^4 cells per well (200 µL). Different concentrations of the tested compounds were used to test the cytotoxicity. […] A non-linear regression of curve fit was used to calculate the IC50.

[3] = system: HepG2 cancer cells; assay: Annexin-V-FITC/PI apoptosis/necrosis flow cytometry, HepG2; type: cell-based, human; conditions: HepG2, IC50 = 13.14 μM, 48 h
Description: (See supplementary information for the detailed methodology of flow cytometric analyses, including “FITC/Annexin-V-FITC/PI differential apoptosis/necrosis”, “DNA content-flow cytometry aided cell cycle”, and “Caspase 3/7 green flow cytometry”).
Supplementary materials for detailed methodology
2.2.2.1. Flow cytometric analysis
2.2.2.1.1. FITC/Annexin-V-FITC/PI Differential Apoptosis/Necrosis Assessment Apoptosis and necrosis cell populations are determined using Annexin V-FITC apoptosis detection kit (Abcam Inc., Cambridge Science Park, Cambridge, UK) coupled with 2 fluorescent channels flowcytometry. After treatment with test compounds for 48 h, cells (10^5 cells) are collected by trypsinization and washed twice with ice-cold PBS (pH 7.4). Then, cells are incubated in dark with 0.5 ml of Annexin V-FITC/PI solution for 30 min in dark at room temperature according to manufacturer protocol. After staining, cells are injected via ACEA Novocyte™ flowcytometer (ACEA Biosciences Inc., San Diego, CA, USA) and analyzed for FITC and PI fluorescent signals using FL1 and FL2 signal detector, respectively (λex/em 488/530 […]
nm for FITC and λex/em 535/617 nm for PI). […]
NovoExpress™ software (ACEA Biosciences Inc., San Diego, CA, USA).
2.2.2.1.3. Caspase- 3/7 green flow cytometry assay
The ability of compounds 4 and 9 to induce the enzymatic activities of caspase 3/7 in HL60 and HepG2 respectively were assayed using caspase 3/7 green flow cytometry assay method. Briefly, control and the tested compounds treated cells (2.5x10^5/mL) were rinsed with ice cold PBS, cell lysates were prepared and subsequently protein

[4] = system: p-PI3K and p-Akt in HepG2 cells; assay: Western blotting p-PI3K and p-AKT, HepG2; type: cell-based, human; conditions: HepG2, with respect to control untreated cells
Description: Western blotting analysis was conducted using untreated and treated HepG2 and HL60 cells. Cells were washed in PBS and lysed in a boiling sample buffer (62.5 mM Tris-HCl pH 6.8, 1% SDS, 10% glycerol, and 5% β-mercaptoethanol) for sodium dodecyl sulfate polyacrylamide gel electrophoresis (SDS-PAGE). The lysates were boiled for 5 min with a lamellae buffer, and the proteins were separated by SDS-PAGE and transferred to an Immobilon membrane (Millipore, Burlington, MA, USA). After incubation in 5% non-fat dry milk, Tris-HCL, 0.1% Tween 20 for 1 h, p-PI3K, and p-AKT, primary antibodies were added to one of the membranes containing specimen samples and incubated at 4 °C overnight. Appropriate secondary antibodies were incubated for 2 hr at room temperature. After being washed twice n 1× TBS-T, densitometric analysis of the immunoblots was performed to quantify the amounts of p-PI3K and p-AKT against the control sample by total protein normalization using Image analysis software on the ChemiDoc MP imaging system (version 3) produced by Bio-Rad (Hercules, CA, USA).
concentration was measured. Lysates were combined with reaction buffer and
incubated with Caspase 3/7 Detection Reagent (specific colorimetric substrates) at 37
°C for 6 h. The samples were estimated at λ 488 nm in BD FACS Calibur flow
2.2.2.3. […]
the immunoblots was performed to quantify the amounts of p-PI3K and p-AKT against […]

## Cc1c(Br)c(=O)oc2c(Br)c(OC(=O)/C=C/c3ccccc3)c(Br)cc12 [Compound 8b, (2E)-3,6,8-Tribromo-4-methyl-2-oxo-2H-chromen-7-yl Cinnamate]
[1]
  AKT relative mRNA expression: 0.72 fold
  Bax relative mRNA expression: 1.51 fold
  Bcl-2 relative mRNA expression: 0.75 fold
  P53 relative mRNA expression: 3.89 fold
  PI3K relative mRNA expression: 0.75 fold
  caspase 3 relative mRNA expression: 4.63 fold
  caspase 7 relative mRNA expression: 3.63 fold
[2]
  IC50: 86.5 ± 2.16 µM
[3]
  Increase of apoptotic cell death versus control: 6.88 fold
  Increase of necrosis-mediated cell death versus control: 1.66 fold
[3]; control 0.96%
  Necrosis, cell percentage: 1.59%
[4]
  levels of p-PI3K and p-Akt: effectively suppressed
